# What was measured:
# [1] = test system: recombinant tobacco line P-6-1 (progeny) leaf discs; test: Resistance test using leaf discs on MS agar medium supplemented with saflufenacil; type: cell-based; conditions: for Score of adverse effects (browning or chlorosis) on leaf disc / Ratio of green area to leaf disc area (%): P-6-1; for Score of adverse effects (browning or chlorosis) on leaf disc: 5 plants; for Ratio of green area to leaf disc area (%): image analysis of FIG. 1, day 8
# Method: P-6-1; DNA encoding the amino acid sequence of SEQ ID NO:1 and DNA encoding the amino acid sequence of SEQ ID NO:3;
# (§1) Homozygote seeds of the recombinant tobacco lines 1609soy#25 and P023, which are described in EP1598423, and progeny seeds of the recombinant tobacco line P-6-1, which is also described in EP1598423, were aseptically sown on MS agar medium supplemented with 100 mg/L kanamycin and screened for plants with kanamaycin resistance. Leaf discs were prepared by cutting true leaves of the selected plants at 1 month after sowing, and placed on MS agar medium supplemented with 0.01 ppm, 0.03 ppm or 0.10 ppm saflufenacil. As negative control, seeds of wild-type SR-1 tobacco plants were aseptically sown on MS agar medium and, similarly, leaf discs were prepared by cutting true leaves of the plants at 1 month after sowing, and placed on MS agar medium supplemented with 0.01 ppm, 0.03 ppm or 0.10 ppm saflufenacil.
# (§2) The leaf discs were prepared from 5 individual plants for each experimental plot. Scoring evaluation was conducted according to the degrees of adverse effects manifested as browning or chlorosis. The scoring criteria are as follows:
# (§3) In the photograph shown in FIG. 1, the green-colored portions were color extracted using the image analysis software “Win ROOF ver.6.1.0” (MITANI Corporation) and their area was quantified. This was then divided by the area calculated by subtracting the area of the medium from the entire area of the image, thereby calculating the percentage of the area of the green-colored portions to the area of the leaf disc.
# [2] = test system: recombinant tobacco line 1609soy#25 leaf discs; test: as above; type: cell-based; conditions: for Score of adverse effects (browning or chlorosis) on leaf disc / Ratio of green area to leaf disc area (%): 1609soy#25; for Score of adverse effects (browning or chlorosis) on leaf disc / Observed adverse effect on leaf discs: day 8; for Score of adverse effects (browning or chlorosis) on leaf disc: 5 plants; for Ratio of green area to leaf disc area (%): image analysis of FIG. 1, day 8; for Observed adverse effect on leaf discs: recombinant tobacco line 1609soy#25
# Method: 1609soy#25: DNA encoding the amino acid sequence of SEQ ID NO:1;
# as §1, §2, §3
# [3] = test system: recombinant tobacco lines 1609soy#17 and #25, 1584soy#16, P023, and 35S-2; test: Resistance test using a spreader: tobacco; type: in vivo; conditions: spray application with automatic spreader; about two weeks later; homozygotes of 1609soy#17, #25, 1584soy#16, P023, 35S-2
# Description: Homozygote seeds of the recombinant tobacco lines 1609soy#17 and #25, 1584soy#16, […], and 35S-2, which are described in EP1598423, are aseptically sown on MS agar medium. Subsequently, the germinated individuals are transferred to culture pots charged with Kureha soil (Kureha Chemicals) and acclimated to the outdoor environment in the phytotron. They are than grown for two weeks in the phytotron. As negative control, seeds of wild-type SR-1 tobacco plants are aseptically sown on MS agar medium and, similarly grown in the phytotron. The plants thus obtained are subjected to the saflufenacil application test. The spray solution is prepared by dissolving saflufenacil in an appropriate solvent, adding an adjuvant, and diluting it with water. Application of the spray solution to the plants are conducted using an wheeled automatic spreader (Mamba Architect Office), by homogenously spraying 20 mL of the solution onto the seedlings of the recombinant and wild-type tobacco plants placed within a 0.9 square-meter area to which the solution is applied. About two weeks later, the susceptibility of the tested recombinant tobacco plants to saflufenacil is compared with that of the wild-type SR-1 tobacco plants to saflufenacil. […] Scoring evaluation is conducted according to the degrees of adverse effects manifested as death of individual plants, or browning or chlorosis of the leaves or stems.
# [4] = test system: recombinant tobacco line P023 leaf discs; test: Resistance test using leaf discs on MS agar medium supplemented with saflufenacil; type: cell-based; conditions: for Score of adverse effects (browning or chlorosis) on leaf disc / Ratio of green area to leaf disc area (%): P023; for Score of adverse effects (browning or chlorosis) on leaf disc / Observed adverse effect on leaf discs: day 8; for Score of adverse effects (browning or chlorosis) on leaf disc: 5 plants; for Ratio of green area to leaf disc area (%): image analysis of FIG. 1, day 8; for Observed adverse effect on leaf discs: recombinant tobacco line P023
# Method: : DNA encoding the amino acid sequence of SEQ ID NO:3; Homozygote seeds of the recombinant tobacco lines 1609soy#25 and […], which are described in EP1598423, and progeny seeds of the recombinant tobacco line P-6-1, which is also described in EP1598423, were aseptically sown on MS agar medium supplemented with 100 mg/L kanamycin and screened for plants with […] resistance. Leaf discs were prepared by cutting true leaves of the selected plants at 1 month after sowing, and placed on MS agar medium supplemented with 0.01 ppm, 0.03 ppm or 0.10 ppm saflufenacil. As negative control, seeds of wild-type SR-1 tobacco plants were aseptically sown on MS agar medium and, similarly, leaf discs were prepared by cutting true leaves of the plants at 1 month after sowing, and placed on MS agar medium supplemented with 0.01 ppm, 0.03 ppm or 0.10 ppm saflufenacil. […] The leaf discs were prepared from 5 individual plants for each experimental plot. Scoring evaluation was conducted according to the degrees of adverse effects manifested as browning or chlorosis. The scoring criteria are as follows: In the photograph shown in FIG. 1, the green-colored portions were color extracted using the image analysis software “Win ROOF ver.6.1.0” (MITANI Corporation) and their area was quantified. This was then divided by the area calculated by subtracting the area of the medium from the entire area of the image, thereby calculating the percentage of the area of the green-colored portions to the area of the leaf disc.
# [5] = test system: wild-type SR-1 tobacco leaf discs; test: as above; type: cell-based; conditions: for Score of adverse effects (browning or chlorosis) on leaf disc / Ratio of green area to leaf disc area (%): Wild-type SR-1; for Score of adverse effects (browning or chlorosis) on leaf disc / Observed adverse effect on leaf discs: day 8; for Score of adverse effects (browning or chlorosis) on leaf disc: 5 plants; for Ratio of green area to leaf disc area (%): image analysis of FIG. 1, day 8; for Observed adverse effect on leaf discs: wild-type SR-1 tobacco leaves
# Method: as §1, §2, §3
# [6] = test system: recombinant soybean lines J16, J18, J26 and J28; test: Resistance test using a spreader: soybean; type: in vivo; conditions: spray application as in Example 2, about two weeks later
# Method: Seeds of the T2 generation of the recombinant soybean lines J16, […], J26 and J28, which are described in US20060009361, are aseptically sown in the culture pots charged with Kureha soil and grown for about 3 weeks in the phytotron. As negative control, seeds of a wild-type soybean (cv. Jack) are similarly grown in the phytotron. The plants thus obtained are subjected to the saflufenacil application test. The application test is conducted according to the method described above in Example 2. About two weeks later, the susceptibility of the tested recombinant soybean plants to saflufenacil is compared with that of the wild-type soybean plants (cv. Jack) to saflufenacil.
structure (smiles),measurement,setting,value
"CC(C)N(C)S(=O)(=O)NC(=O)c1cc(-n2c(=O)cc(C(F)(F)F)n(C)c2=O)c(F)cc1Cl [Saflufenacil, N′-{2-chloro-4-fluoro-5-[1,2,3,6-tetrahydro-3-methyl-2,6-dioxo-4-(trifluoromethyl)pyrimidine-1-yl]benzoyl}-N-isopropyl-N-methyl sulfamide]",Score of adverse effects (browning or chlorosis) on leaf disc,"[1]; saflufenacil 0.01 ppm, day 8",3.0
same,Ratio of green area to leaf disc area (%),[1]; saflufenacil 0.01 ppm,87%
same,Score of adverse effects (browning or chlorosis) on leaf disc,"[1]; saflufenacil 0.03 ppm, day 8",2.6
same,Ratio of green area to leaf disc area (%),[1]; saflufenacil 0.03 ppm,78%
same,Score of adverse effects (browning or chlorosis) on leaf disc,"[1]; saflufenacil 0.10 ppm, day 8",3.0
same,Ratio of green area to leaf disc area (%),[1]; saflufenacil 0.10 ppm,83%
same,Observed adverse effect on leaf discs,"[1]; progeny plants of recombinant tobacco line P-6-1, 0.10 ppm, day 8",no adverse effect
same,Score of adverse effects (browning or chlorosis) on leaf disc,[2]; saflufenacil 0.01 ppm,3.0
same,Ratio of green area to leaf disc area (%),[2]; saflufenacil 0.01 ppm,85%
same,Score of adverse effects (browning or chlorosis) on leaf disc,[2]; saflufenacil 0.03 ppm,2.0
same,Ratio of green area to leaf disc area (%),[2]; saflufenacil 0.03 ppm,80%
same,Score of adverse effects (browning or chlorosis) on leaf disc,[2]; saflufenacil 0.10 ppm,1.0
same,Ratio of green area to leaf disc area (%),[2]; saflufenacil 0.10 ppm,8%
same,Observed adverse effect on leaf discs,[2]; 0.01 ppm,no adverse effect
same,Observed adverse effect on leaf discs,[2]; 0.03 ppm,partial browning
same,Observed adverse effect on leaf discs,[2]; 0.10 ppm,overall browning
same,Susceptibility of recombinant tobacco plants to saflufenacil compared with wild-type SR-1,[3],lower susceptibility
same,Score of adverse effects (browning or chlorosis) on leaf disc,[4]; saflufenacil 0.01 ppm,3.0
same,Ratio of green area to leaf disc area (%),[4]; saflufenacil 0.01 ppm,89%
same,Score of adverse effects (browning or chlorosis) on leaf disc,[4]; saflufenacil 0.03 ppm,3.0
same,Ratio of green area to leaf disc area (%),[4]; saflufenacil 0.03 ppm,86%
same,Score of adverse effects (browning or chlorosis) on leaf disc,[4]; saflufenacil 0.10 ppm,2.0
same,Ratio of green area to leaf disc area (%),[4]; saflufenacil 0.10 ppm,51%
same,Observed adverse effect on leaf discs,[4]; 0.10 ppm,partial chlorosis
same,Observed adverse effect on leaf discs,[4]; up to 0.03 ppm,no adverse effect
same,Score of adverse effects (browning or chlorosis) on leaf disc,[5]; saflufenacil 0.01 ppm,2.0
same,Ratio of green area to leaf disc area (%),[5]; saflufenacil 0.01 ppm,77%
same,Score of adverse effects (browning or chlorosis) on leaf disc,[5]; saflufenacil 0.03 ppm,1.0
same,Ratio of green area to leaf disc area (%),[5]; saflufenacil 0.03 ppm,20%
same,Score of adverse effects (browning or chlorosis) on leaf disc,[5]; saflufenacil 0.10 ppm,0.2
same,Ratio of green area to leaf disc area (%),[5]; saflufenacil 0.10 ppm,2%
same,Observed adverse effect on leaf discs,[5]; 0.01 ppm,partial browning
same,Observed adverse effect on leaf discs,[5]; 0.10 ppm,overall chlorosis
same,Susceptibility of recombinant soybean plants to saflufenacil compared with wild-type soybean (cv. Jack),[6],lower susceptibility
